Patent publication US20070155764A1, “NOVEL SUBSTITUTED PYRIMIDINYLOXY UREAS USEFUL AS INHIBITORS OF PROTEIN KINASES” (KALYPSYS, INC., priority 2005, published 2007)

Columns and labels:
Format in all cases: biochemical
[1] = biological target: T1, human B-Raf protein kinase (Homo sapiens, UniProt P15056); test: In vitro B-Raf/Mek1 composite kinase assay; conditions: recombinant GST-tagged human B-Raf (Δ1-415) with inactive Mek1, 2 μM ATP
T1 construct: GST (N); purchased Upstate Inc. 14-530 (B-Raf); 14-420 (Mek1)
T1 sequence (P15056 416-766): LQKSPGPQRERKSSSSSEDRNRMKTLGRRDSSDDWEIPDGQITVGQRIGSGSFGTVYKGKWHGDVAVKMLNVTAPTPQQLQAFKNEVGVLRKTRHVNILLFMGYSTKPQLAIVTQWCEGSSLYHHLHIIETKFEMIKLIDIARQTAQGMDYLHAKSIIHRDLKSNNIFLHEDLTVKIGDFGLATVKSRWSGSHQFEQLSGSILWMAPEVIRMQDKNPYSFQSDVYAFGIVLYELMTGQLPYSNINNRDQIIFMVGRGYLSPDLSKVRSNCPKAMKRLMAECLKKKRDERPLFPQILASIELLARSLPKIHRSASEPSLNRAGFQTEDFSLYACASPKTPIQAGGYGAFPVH
Summary of the method: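 Luminescent ATP-depletion assay using recombinant N-terminal GST-tagged human B-Raf (Δ1-415, 1 ng/well) in MOPS pH 7.2 buffer with 10 mM MgCl2. Compounds were preincubated 15 min at about 22° C, then the reaction ran 2 h before PKLight readout. Efficacy is expressed as percentage of positive-control (Bay 43-9006) activity.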

VEGFR2 kinase = biological target: T2, VEGFR2 kinase (Homo sapiens, UniProt P35968); test: In vitro VEGFR2 kinase assay; conditions: ADP Quest assay, poly Glu:Tyr substrate, 60 μM ATP
T2 construct: purchased Invitrogen Inc PV3660
T2 sequence (P35968 20-1356): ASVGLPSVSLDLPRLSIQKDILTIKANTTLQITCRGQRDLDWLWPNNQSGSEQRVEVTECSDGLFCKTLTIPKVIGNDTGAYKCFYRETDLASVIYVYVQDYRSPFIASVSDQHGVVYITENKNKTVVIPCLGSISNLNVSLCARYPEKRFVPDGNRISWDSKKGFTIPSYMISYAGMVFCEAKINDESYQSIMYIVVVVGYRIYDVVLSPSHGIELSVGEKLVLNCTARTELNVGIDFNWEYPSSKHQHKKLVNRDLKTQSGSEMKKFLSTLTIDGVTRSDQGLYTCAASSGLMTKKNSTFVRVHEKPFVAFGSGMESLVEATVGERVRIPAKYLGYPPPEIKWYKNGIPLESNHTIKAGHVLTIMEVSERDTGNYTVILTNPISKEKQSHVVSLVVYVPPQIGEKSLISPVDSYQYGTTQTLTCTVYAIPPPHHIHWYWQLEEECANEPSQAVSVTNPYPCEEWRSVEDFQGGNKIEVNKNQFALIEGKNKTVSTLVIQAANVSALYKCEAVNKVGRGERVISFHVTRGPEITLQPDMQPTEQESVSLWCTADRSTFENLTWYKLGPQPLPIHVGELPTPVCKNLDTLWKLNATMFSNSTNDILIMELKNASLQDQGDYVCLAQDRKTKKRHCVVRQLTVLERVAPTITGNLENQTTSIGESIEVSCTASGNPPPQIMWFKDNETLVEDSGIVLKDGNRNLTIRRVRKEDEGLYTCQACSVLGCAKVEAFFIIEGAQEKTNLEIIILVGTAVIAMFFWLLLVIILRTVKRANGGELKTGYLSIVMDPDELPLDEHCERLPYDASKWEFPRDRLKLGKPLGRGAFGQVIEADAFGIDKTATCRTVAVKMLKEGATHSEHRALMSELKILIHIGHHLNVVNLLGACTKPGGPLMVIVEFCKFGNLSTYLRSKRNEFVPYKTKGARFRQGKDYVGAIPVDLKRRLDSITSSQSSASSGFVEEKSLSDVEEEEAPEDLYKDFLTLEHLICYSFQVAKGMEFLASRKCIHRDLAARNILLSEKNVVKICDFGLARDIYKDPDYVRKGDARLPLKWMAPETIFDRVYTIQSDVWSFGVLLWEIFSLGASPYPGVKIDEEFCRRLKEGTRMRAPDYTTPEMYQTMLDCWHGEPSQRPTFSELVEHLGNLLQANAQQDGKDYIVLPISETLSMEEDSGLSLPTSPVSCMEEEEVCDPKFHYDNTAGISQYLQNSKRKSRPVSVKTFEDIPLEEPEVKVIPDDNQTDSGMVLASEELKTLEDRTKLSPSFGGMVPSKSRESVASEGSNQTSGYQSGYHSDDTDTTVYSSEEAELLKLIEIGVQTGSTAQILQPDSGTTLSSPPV
Summary of the method: (§1)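 Compound was preincubated 10 min at ~22 °C with 20 ng VEGFR2 or 25 ng PDGFRβ, then poly Glu:Tyr (4:1) substrate (0.25 μg) with 60 μM ATP (in added buffer) was reacted 2 h at 30 °C. ADP Quest resorufin fluorescence was read (ex 530/em 580) after 30 min. Efficacy is expressed as percent of positive-control (Bay 43-9006) activity, with DMSO as negative control.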

PDGFRβ kinase = biological target: T3, PDGFRβ kinase (Homo sapiens, UniProt P09619); test: In vitro PDGFRβ kinase assay; conditions: ADP Quest assay, poly Glu:Tyr substrate, 60 μM ATP
T3 construct: purchased Invitrogen Inc. P3082
T3 sequence (P09619 33-1106): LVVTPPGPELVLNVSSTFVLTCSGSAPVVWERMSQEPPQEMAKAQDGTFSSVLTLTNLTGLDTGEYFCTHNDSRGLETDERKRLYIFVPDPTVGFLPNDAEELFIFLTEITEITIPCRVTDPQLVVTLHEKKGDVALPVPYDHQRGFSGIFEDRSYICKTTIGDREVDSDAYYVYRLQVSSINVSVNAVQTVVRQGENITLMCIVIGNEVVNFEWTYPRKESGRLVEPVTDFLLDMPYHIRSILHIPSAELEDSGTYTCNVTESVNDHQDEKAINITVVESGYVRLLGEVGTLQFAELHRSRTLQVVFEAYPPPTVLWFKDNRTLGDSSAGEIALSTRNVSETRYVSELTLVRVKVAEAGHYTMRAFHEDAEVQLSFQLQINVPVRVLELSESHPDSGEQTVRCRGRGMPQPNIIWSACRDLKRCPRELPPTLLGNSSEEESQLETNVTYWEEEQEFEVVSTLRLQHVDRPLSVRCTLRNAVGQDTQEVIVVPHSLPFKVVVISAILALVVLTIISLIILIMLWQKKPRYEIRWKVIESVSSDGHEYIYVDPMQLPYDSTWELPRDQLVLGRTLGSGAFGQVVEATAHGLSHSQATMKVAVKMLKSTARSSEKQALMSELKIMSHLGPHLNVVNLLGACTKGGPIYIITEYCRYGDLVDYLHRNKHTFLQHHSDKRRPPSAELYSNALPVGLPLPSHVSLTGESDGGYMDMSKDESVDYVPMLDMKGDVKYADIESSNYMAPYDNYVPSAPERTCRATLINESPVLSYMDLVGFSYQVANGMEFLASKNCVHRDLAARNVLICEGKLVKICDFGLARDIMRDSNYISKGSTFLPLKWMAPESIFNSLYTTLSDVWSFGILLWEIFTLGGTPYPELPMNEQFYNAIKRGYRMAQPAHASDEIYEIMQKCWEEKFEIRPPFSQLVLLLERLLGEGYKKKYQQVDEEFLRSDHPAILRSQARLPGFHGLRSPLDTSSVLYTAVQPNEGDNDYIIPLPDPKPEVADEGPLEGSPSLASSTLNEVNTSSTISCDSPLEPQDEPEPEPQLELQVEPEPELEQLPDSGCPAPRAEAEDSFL
Summary of the method: as §1

Row | Compound | IC50 [1] [µM] | IC50 (VEGFR2 kinase) [µM] | IC50 (PDGFRβ kinase) [µM]
1 | Cc1nn(C)c(C)c1-c1cc(Oc2cccc(NC(=O)Nc3ccc(Cl)c(C(F)(F)F)c3)c2)ncn1 [Example 69, 1-(4-Chloro-3-(trifluoromethyl)phenyl)-3-(3-(6-(1,3,5-trimethyl-1H-pyrazol-4-yl)pyrimidin-4-yloxy)phenyl)urea] | ≤ 10 | > 10 | > 10
2 | Cc1nn(C)c(C)c1-c1cc(Oc2ccc(NC(=O)Nc3ccc(Cl)c(C(F)(F)F)c3)cc2)ncn1 [Example 70, 1-(4-Chloro-3-(trifluoromethyl)phenyl)-3-(4-(6-(1,3,5-trimethyl-1H-pyrazol-4-yl)pyrimidin-4-yloxy)phenyl)urea] | > 10 | > 10 | ≤ 10
3 | Cn1cc(-c2nccc(Oc3cccc(NC(=O)Nc4ccc(Cl)c(C(F)(F)F)c4)c3)n2)cn1 [Example 71, 1-(4-Chloro-3-(trifluoromethyl)phenyl)-3-(3-(2-(1-methyl-1H-pyrazol-4-yl)pyrimidin-4-yloxy)phenyl)urea] | ≤ 10 | ≤ 10 | ≤ 10
4 | Cn1cc(-c2nccc(Nc3ccc(NC(=O)Nc4ccc(Cl)c(C(F)(F)F)c4)cc3)n2)cn1 [Example 72, 1-(4-Chloro-3-trifluoromethyl-phenyl)-3-{4-[2-(1-methyl-1H-pyrazol-4-yl)-pyrimidin-4-ylamino]-phenyl}-urea] | ≤ 10 | ≤ 10 | ≤ 10
5 | O=C(Nc1ccc(Oc2cc(-c3nc(C(F)(F)F)c[nH]3)ncn2)cc1)Nc1ccc(Cl)c(C(F)(F)F)c1 [Example 73, 1-(4-Chloro-3-(trifluoromethyl)phenyl)-3-(4-(6-(4-(trifluoromethyl)-1H-imidazol-2-yl)pyrimidin-4-yloxy)phenyl)urea] | ≤ 10 | > 10 | ≤ 10
6 | O=C(Nc1cccc(Oc2cc(-c3nc(C(F)(F)F)c[nH]3)ncn2)c1)Nc1ccc(Cl)c(C(F)(F)F)c1 [Example 74, 1-(4-Chloro-3-(trifluoromethyl)phenyl)-3-(3-(6-(4-(trifluoromethyl)-1H-imidazol-2-yl)pyrimidin-4-yloxy)phenyl)urea] | ≤ 10 | > 10 | ≤ 10
7 | COCCOc1ccc(NC(=O)Nc2cc(Oc3ccnc(-c4cnn(C)c4)n3)c(F)cc2F)cc1C(F)(F)F [Example 75, 1-(2,4-Difluoro-5-(2-(1-methyl-1H-pyrazol-4-yl)pyrimidin-4-yloxy)phenyl)-3-(4-(2-methoxyethoxy)-3-(trifluoromethyl)phenyl)urea] | ≤ 10 | ≤ 10 | ≤ 10
8 | O=C(Nc1ccc(Oc2cc(-c3cnn(CCN4CCOCC4)c3)ncn2)cc1)Nc1ccc(Cl)c(C(F)(F)F)c1 [Example 76, 1-(4-Chloro-3-(trifluoromethyl)phenyl)-3-(4-(6-(1-(2-morpholinoethyl)-1H-pyrazol-4-yl)pyrimidin-4-yloxy)phenyl)urea] | ≤ 10 | ≤ 10 | ≤ 10
9 | O=C(Nc1cccc(Oc2cc(-c3cnn(CCN4CCOCC4)c3)ncn2)c1)Nc1ccc(Cl)c(C(F)(F)F)c1 [Example 77, 1-(4-Chloro-3-(trifluoromethyl)phenyl)-3-(3-(6-(1-(2-morpholinoethyl)-1H-pyrazol-4-yl)pyrimidin-4-yloxy)phenyl)urea] | ≤ 10 | ≤ 10 | ≤ 10
10 | Cn1cc(-c2nccc(Oc3ccc(F)c(NC(=O)Nc4ccc(Cl)c(C(F)(F)F)c4)c3)n2)cn1 [Example 78, 1-(4-Chloro-3-(trifluoromethyl)phenyl)-3-(2-fluoro-5-(2-(1-methyl-1H-pyrazol-4-yl)pyrimidin-4-yloxy)phenyl)urea] | ≤ 10 | ≤ 10 | ≤ 10
11 | Cn1cc(-c2nccc(Oc3cccc(NC(=O)Nc4ccc(OC(F)(F)F)cc4)c3)n2)cn1 [Example 79, 1-(3-(2-(1-Methyl-1H-pyrazol-4-yl)pyrimidin-4-yloxy)phenyl)-3-(4-(trifluoromethoxy)phenyl)urea] | ≤ 10 | ≤ 10 | ≤ 10
12 | Cn1cc(-c2nccc(Oc3cccc(NC(=O)Nc4ccc(C(F)(F)F)cc4)c3)n2)cn1 [Example 80, 1-(3-(2-(1-Methyl-1H-pyrazol-4-yl)pyrimidin-4-yloxy)phenyl)-3-(4-(trifluoromethyl)phenyl)urea] | ≤ 10 | ≤ 10 | ≤ 10
13 | CCOC(=O)c1coc(-c2cc(Oc3cccc(NC(=O)Nc4ccc(Cl)c(C(F)(F)F)c4)c3)ncn2)n1 [Example 81, Ethyl 2-(6-(3-(3-(4-chloro-3-(trifluoromethyl)phenyl)ureido)phenoxy)pyrimidin-4-yl)oxazole-4-carboxylate] | ≤ 10 | ≤ 10 | ≤ 10
14 | NC(=O)c1coc(-c2cc(Oc3cccc(NC(=O)Nc4ccc(Cl)c(C(F)(F)F)c4)c3)ncn2)n1 [Example 82, 2-(6-(3-(3-(4-Chloro-3-(trifluoromethyl)phenyl)ureido)phenoxy)pyrimidin-4-yl)oxazole-4-carboxamide] | ≤ 10 | ≤ 10 | ≤ 10
15 | Cn1cc(-c2nccc(Oc3cccc(NC(=O)Nc4cccc(OC(F)(F)F)c4)c3)n2)cn1 [Example 83, 1-(3-(2-(1-Methyl-1H-pyrazol-4-yl)pyrimidin-4-yloxy)phenyl)-3-(3-(trifluoromethoxy)phenyl)urea] | ≤ 10 | ≤ 10 | ≤ 10
16 | Cn1cc(-c2nccc(Oc3cccc(NC(=O)Nc4cc(C(F)(F)F)cc(C(F)(F)F)c4)c3)n2)cn1 [Example 84, 1-(3,5-Bis(trifluoromethyl)phenyl)-3-(3-(2-(1-methyl-1H-pyrazol-4-yl)pyrimidin-4-yloxy)phenyl)urea] | ≤ 10 | ≤ 10 | ≤ 10
17 | O=C(Nc1cccc(Oc2cc(-c3ncc[nH]3)ncn2)c1)Nc1ccc(Cl)c(C(F)(F)F)c1 [Example 85, 1-(3-(6-(1H-Imidazol-2-yl)pyrimidin-4-yloxy)phenyl)-3-(4-chloro-3-(trifluoromethyl)phenyl)urea] | ≤ 10 | ≤ 10 | ≤ 10
18 | C#Cc1cccc(NC(=O)Nc2cccc(Oc3cc(-c4cnn(C)c4)ncn3)c2)c1 [Example 86, 1-(3-Ethynylphenyl)-3-(3-(6-(1-methyl-1H-pyrazol-4-yl)pyrimidin-4-yloxy)phenyl)urea] | ≤ 10 | ≤ 10 | ≤ 10
19 | Cn1cc(-c2nccc(Oc3ccc(NC(=O)Nc4ccc(Cl)c(C(F)(F)F)c4)c(F)c3)n2)cn1 [Example 88, 1-(4-Chloro-3-(trifluoromethyl)phenyl)-3-(2-fluoro-4-(2-(1-methyl-1H-pyrazol-4-yl)pyrimidin-4-yloxy)phenyl)urea] | ≤ 10 | ≤ 10 | ≤ 10
20 | O=C(Nc1ccc(C(F)(F)F)cc1)Nc1cccc(Oc2cc(-c3nnco3)ncn2)c1 [Example 89, 1-(3-(6-(1,3,4-Oxadiazol-2-yl)pyrimidin-4-yloxy)phenyl)-3-(4-(trifluoromethyl)phenyl)urea] | ≤ 10 | ≤ 10 | ≤ 10
21 | Cn1cc(-c2cc(Oc3ccc(F)c(NC(=O)Nc4ccc(C(F)(F)F)cc4F)c3)ncn2)cn1 [Example 90, 1-(2-Fluoro-4-(trifluoromethyl)phenyl)-3-(2-fluoro-5-(6-(1-methyl-1H-pyrazol-4-yl)pyrimidin-4-yloxy)phenyl)urea] | ≤ 10 | ≤ 10 | ≤ 10
22 | Cn1cc(-c2cc(Oc3cccc(NC(=O)Nc4ccc(C(F)(F)F)cc4F)c3)ncn2)cn1 [Example 91, 1-(2-Fluoro-4-(trifluoromethyl)phenyl)-3-(3-(6-(1-methyl-1H-pyrazol-4-yl)pyrimidin-4-yloxy)phenyl)urea] | ≤ 10 | ≤ 10 | ≤ 10
23 | Cn1cc(-c2cc(Oc3ccc(NC(=O)Nc4ccc(Cl)c(C(F)(F)F)c4)c(F)c3)ncn2)cn1 [Example 92, 1-(4-Chloro-3-(trifluoromethyl)phenyl)-3-(2-fluoro-4-(6-(1-methyl-1H-pyrazol-4-yl)pyrimidin-4-yloxy)phenyl)urea] | ≤ 10 | ≤ 10 | ≤ 10
24 | Cn1cc(-c2nccc(Oc3ccc(NC(=O)Nc4cccc(C(F)(F)F)c4)c(F)c3)n2)cn1 [Example 93, 1-(2-Fluoro-4-(2-(1-methyl-1H-pyrazol-4-yl)pyrimidin-4-yloxy)phenyl)-3-(3-(trifluoromethyl)phenyl)urea] | ≤ 10 | ≤ 10 | ≤ 10
25 | COc1ccc(C(F)(F)F)cc1NC(=O)Nc1cccc(Oc2cc(-c3cnn(C)c3)ncn2)c1 [Example 94, 1-(2-Methoxy-5-(trifluoromethyl)phenyl)-3-(3-(6-(1-methyl-1H-pyrazol-4-yl)pyrimidin-4-yloxy)phenyl)urea] | ≤ 10 | ≤ 10 | ≤ 10
26 | COc1ccc(C(F)(F)F)cc1NC(=O)Nc1cc(Oc2cc(-c3cnn(C)c3)ncn2)ccc1F [Example 95, 1-(2-Fluoro-5-(6-(1-methyl-1H-pyrazol-4-yl)pyrimidin-4-yloxy)phenyl)-3-(2-methoxy-5-(trifluoromethyl)phenyl)urea] | ≤ 10 | ≤ 10 | ≤ 10
